Laboratory results taken from paper PMC9917443 (eLife, 2023).

Key:
[1] = system: GBR-activated K^+ currents in cultured hippocampal neurons; assay: K^+ currents in cultured hippocampal neurons (patch-clamp); assay type: cell-based, mouse; settings: for K^+ currents evoked by compound alone (in words): 5 µM, -70 mV
Description: APP17 signaling through native GBRs may depend on protein-protein interactions that are not preserved in the membrane preparations used for the [^35S]GTPγS binding assay. Therefore, we tested whether APP17 influences GBR-mediated Gβγ signaling to K^+ channels in cultured hippocampal neurons using patch-clamp electrophysiology, which preserves the native environment of receptors ([Schuler et al., 2001]; [Vigot et al., 2006]). […] . Neuronal cultures and HEK293T cells were prepared as described ([Dinamarca et al., 2019]). Coverslips with hippocampal neurons (DIV 12–15) or HEK293T cells were transferred to a chamber containing a low-K^+ bath solution (in mM): 145 NaCl, 4 KCl, 5 HEPES, 5.5 D-glucose, 1 MgCl2, and 1.8 CaCl2 (pH 7.4 adjusted with NaOH). Recordings were performed at room temperature using borosilicate pipettes of 3–5 MΩ resistance tips, filled with K-gluconate-based pipette solution (in mM): 150 K-gluconate, 1.1 EGTA, 10 HEPES, 10 Tris-phosphocreatine, 0.3 NaGTP, and 4 MgATP (pH 7.2 adjusted with KOH). Upon achieving whole-cell access, cells were held in voltage-clamp mode at −70 mV (with no correction for liquid junction potential) and baclofen-induced K^+ currents were induced in a high-K^+ bath solution (in mM): 120 NaCl, 25 KCl, 5 HEPES, 5.5 D-glucose, 1 MgCl2, and 1.8 CaCl2 (pH 7.4 adjusted with NaOH). […] Schaffer collaterals were stimulated at 0.1 Hz with brief current pulses via bipolar Pt/Ir wires. Evoked EPSCs were recorded at –60 mV with a Cs^+-based intracellular solution. Baclofen and peptides were bath applied in standard ACSF at room temperature. We recorded mEPSCs in primary neuronal cultures established from embryonic (E15–17) murine hippocampus at DIV13–16 in the presence of 0.5 μM TTX at room temperature ([Dinamarca et al., 2019]). APP17 (250 nM) and (R)-baclofen (30 μM) were applied via superfusion. Template matching with pClamp 10 software (Molecular Devices) was used to detect individual mEPSCs.

[2] = system: mEPSCs of cultured hippocampal neurons; assay: mEPSC frequency in cultured hippocampal neurons; assay type: cell-based, mouse; settings: baclofen 30 µM, after APP17, 0.5 μM TTX
Description: (§1) GB1a/2 receptors are abundant at axon terminals where they inhibit neurotransmitter release ([Vigot et al., 2006]). […] A GBR antagonist blocked the effect of APP17 on the mEPSC frequency, supporting a GBR-dependent mechanism. […] We additionally studied whether APP17 at 250 nM influences eEPSC amplitudes in acute hippocampal slices. Postsynaptic GBR-activated K^+ currents were blocked with a Cs^+-based intracellular solution, which allowed to specifically monitor the activity of presynaptic GBRs.
(§2) Neuronal cultures and HEK293T cells were prepared as described ([Dinamarca et al., 2019]). Coverslips with hippocampal neurons (DIV 12–15) or HEK293T cells were transferred to a chamber containing a low-K^+ bath solution (in mM): 145 NaCl, 4 KCl, 5 HEPES, 5.5 D-glucose, 1 MgCl2, and 1.8 CaCl2 (pH 7.4 adjusted with NaOH). Recordings were performed at room temperature using borosilicate pipettes of 3–5 MΩ resistance tips, filled with K-gluconate-based pipette solution (in mM): 150 K-gluconate, 1.1 EGTA, 10 HEPES, 10 Tris-phosphocreatine, 0.3 NaGTP, and 4 MgATP (pH 7.2 adjusted with KOH). […] Evoked EPSCs were recorded at –60 mV with a Cs^+-based intracellular solution. […] We recorded mEPSCs in primary neuronal cultures established from embryonic (E15–17) murine hippocampus at DIV13–16 in the presence of 0.5 μM TTX at room temperature ([Dinamarca et al., 2019]). […]

[3] = system: eEPSCs of CA1 pyramidal neurons; assay: eEPSC amplitudes in CA1 pyramidal neurons of acute hippocampal slices; parameters: species or system mouse; settings: APP17 250 nM or baclofen 20 µM, Cs^+-based intracellular solution
Description: as §1, §2

[4] = system: spontaneous neuronal activity in the auditory cortex; assay: two-photon Ca^2+ imaging of auditory cortex in anesthetized mice; settings: 5 µM perfused over cortex; peptides 60 min, baclofen 15 min
[5] = system: native GBRs in mouse brain membranes; assay: [^35S]GTPγS binding in brain membrane preparations
[6] = system: GB1a/2 receptors in HEK293T cells; assay: APP17-TMR binding / displacement at GB1a/2 receptors in HEK293T cells; settings: 10 μM peptide
Description: Transfected HEK293T cells expressing Flag-GB1a and Flag-GB2 were seeded into 96-well microplates (Greiner Bio-One, Kremsmünster, Austria) at 50,000 cells/well. After 18 hr, peptides were mixed with conditioned medium at the following final concentrations: APP17-TMR (1 µM) with either APP17 (10 µM), sc-APP17 (10 µM), or PBS (vehicle); sc-APP17-TMR (1 µM) in PBS was used as a negative control. After removal of medium, peptide mixes were added to the wells and cells incubated in the dark for 1 hr at room temperature. After removal of the peptides, PBS with MgCl2 and CaCl2 (Sigma-Aldrich) was added to the wells. TMR fluorescence was monitored with a Spark microplate reader (Tecan Group, Männerdorf, Switzerland) using a monochromator (Excitation 544 nm, […] bandwidth; detection […], 25 nm bandwidth). TMR fluorescence was determined after subtraction of the sc-APP17-TMR fluorescence measured at HEK293T cells transfected with pCI plasmid.

[7] = system: GB1a/2 receptor-induced Kir3 currents in HEK293T cells; assay: Kir3 K^+ currents in transfected HEK293T cells (patch-clamp); assay type: cell-based
[8] = biological target: T1, GB1a/2 receptors (Homo sapiens, UniProt O75899+Q9UBS5); assay: PKA luminescence assay (R-RLuc-N / C-RLuc-C) of Gαi signaling in HEK293T cells
T1 sequence (Q9UBS5 15-961 limits assumed): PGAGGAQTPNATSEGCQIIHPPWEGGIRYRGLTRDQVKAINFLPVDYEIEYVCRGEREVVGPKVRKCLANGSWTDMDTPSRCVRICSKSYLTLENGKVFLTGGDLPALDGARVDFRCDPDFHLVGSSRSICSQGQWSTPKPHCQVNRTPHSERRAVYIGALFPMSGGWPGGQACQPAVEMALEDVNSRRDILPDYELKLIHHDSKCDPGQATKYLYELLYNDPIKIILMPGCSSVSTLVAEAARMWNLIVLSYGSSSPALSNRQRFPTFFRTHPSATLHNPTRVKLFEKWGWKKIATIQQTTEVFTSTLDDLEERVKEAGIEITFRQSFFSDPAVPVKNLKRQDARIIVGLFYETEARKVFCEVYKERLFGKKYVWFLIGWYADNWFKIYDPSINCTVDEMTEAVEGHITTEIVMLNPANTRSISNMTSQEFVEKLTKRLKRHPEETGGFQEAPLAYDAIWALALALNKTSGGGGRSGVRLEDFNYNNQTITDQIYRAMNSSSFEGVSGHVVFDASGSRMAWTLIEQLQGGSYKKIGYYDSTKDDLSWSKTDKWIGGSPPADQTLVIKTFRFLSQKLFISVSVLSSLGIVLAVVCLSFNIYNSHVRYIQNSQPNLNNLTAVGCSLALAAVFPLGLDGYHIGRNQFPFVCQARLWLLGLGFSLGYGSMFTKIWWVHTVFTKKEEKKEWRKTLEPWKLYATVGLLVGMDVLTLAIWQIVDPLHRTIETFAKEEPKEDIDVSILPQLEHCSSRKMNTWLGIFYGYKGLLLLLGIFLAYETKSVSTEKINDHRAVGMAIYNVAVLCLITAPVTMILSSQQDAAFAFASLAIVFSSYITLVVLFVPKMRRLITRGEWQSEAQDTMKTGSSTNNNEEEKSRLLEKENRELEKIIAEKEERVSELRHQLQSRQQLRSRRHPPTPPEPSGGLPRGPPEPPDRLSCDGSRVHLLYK
T1 sequence (O75899 42-941 partner): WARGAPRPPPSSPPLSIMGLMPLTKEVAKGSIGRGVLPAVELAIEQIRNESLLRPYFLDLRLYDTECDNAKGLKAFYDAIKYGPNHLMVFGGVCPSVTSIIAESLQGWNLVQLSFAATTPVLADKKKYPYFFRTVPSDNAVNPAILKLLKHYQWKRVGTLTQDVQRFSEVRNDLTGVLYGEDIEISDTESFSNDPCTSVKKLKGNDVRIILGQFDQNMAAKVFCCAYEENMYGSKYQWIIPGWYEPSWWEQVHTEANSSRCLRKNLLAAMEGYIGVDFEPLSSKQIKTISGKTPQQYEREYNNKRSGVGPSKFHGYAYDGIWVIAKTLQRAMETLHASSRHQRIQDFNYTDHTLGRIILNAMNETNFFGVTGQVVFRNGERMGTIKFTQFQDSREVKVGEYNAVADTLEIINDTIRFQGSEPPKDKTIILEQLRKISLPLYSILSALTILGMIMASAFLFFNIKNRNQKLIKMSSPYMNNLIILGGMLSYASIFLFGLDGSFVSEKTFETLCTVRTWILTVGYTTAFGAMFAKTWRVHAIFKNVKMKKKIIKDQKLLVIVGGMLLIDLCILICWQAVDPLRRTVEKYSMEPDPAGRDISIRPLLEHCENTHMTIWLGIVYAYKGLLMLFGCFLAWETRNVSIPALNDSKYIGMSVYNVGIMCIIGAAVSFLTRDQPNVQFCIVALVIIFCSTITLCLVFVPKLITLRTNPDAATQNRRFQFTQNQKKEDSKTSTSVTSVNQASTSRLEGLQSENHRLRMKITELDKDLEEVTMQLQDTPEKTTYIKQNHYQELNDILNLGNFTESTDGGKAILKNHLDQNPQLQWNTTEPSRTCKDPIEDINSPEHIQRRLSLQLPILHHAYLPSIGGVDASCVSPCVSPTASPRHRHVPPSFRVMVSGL

[9] = biological target: T1, GB1a/2 receptors; assay: inter-subunit FRET conformational sensor (HA-GB1a-ACP / Flag-SNAP-GB2) in HEK293T cells; settings: for Fig. 2c value, 10mM GABA / Fig. 2c value, Basal: + Vehicle Basal given as 100; for Fig. 2c value, Basal: Basal (no GABA)
[10] = biological target: T1, GB1a/2 receptors; assay: Ca^2+ mobilization assay (Calcium 6) in HEK293T cells expressing GB1a/2; assay type: cell-based; parameters: Flag (N); expressed in transfected cells; host or cells: HEK293T cells stably expressing chimeric Gαqi; settings: 1 or 10 μM
[11] = system: mEPSCs in brain slices / cultured hippocampal neurons; settings: cultured hippocampal neurons APP17 250 nM, ref Rice et al., 2019; cited from earlier work
From the text: GBRs are composed of a GB1a or GB1b subunit with a GB2 subunit, which generates heterodimeric GB1a/2 and GB1b/2 receptors ([Pin and Bettler, 2016]). GB1a differs from GB1b by the presence of two N-terminal sushi domains (SD1/2). GB1a/2 and GB1b/2 receptors predominantly localize to pre- and postsynaptic sites, respectively ([Vigot et al., 2006]). APP and sAPP bind to SD1 of GB1a ([Schwenk et al., 2016]; [Dinamarca et al., 2019]; [Rice et al., 2019]). Synthetic APP peptides of 9 or 17 amino acid residues, termed APP9 and APP17, are sufficient for binding and inducing a stable conformation in SD ... || GB1a/2 receptors are abundant at axon terminals where they inhibit neurotransmitter release ([Vigot et al., 2006]). […] A GBR antagonist blocked the effect of APP17 on the mEPSC frequency, supporting a GBR-dependent mechanism.

[12] = 1 μM APP17, best-fit, different curve for each data set
[13] = Global (shared) fit, Vehicle and 1 μM APP17, one curve for all data sets
[14] = Vehicle, best-fit, different curve for each data set

In the case of `NCC(CC(=O)O)c1ccc(Cl)cc1` (centres unmarked) [baclofen], the “K^+ currents evoked by compound alone (in words)” value [1] is reported as “activation of K^+ channels by Gβγ”, the “mEPSC frequency (in words)” value [2] is reported as “significantly reduced mEPSC frequency” and the “eEPSC amplitude (in words)” value [3] is reported as “able to reduce the amplitudes of eEPSCs”. The “spontaneous Ca^2+ transients (in words)” value [4] was “reduced spontaneous Ca^2+ transients after 15 min of perfusion”.
`NCCCC(=O)O` [GABA] showed a Bottom [5, 12] of 0.9821, a HillSlope [5, 12] of 0.6558 and a Span [5, 12] of 0.4027. The Top [5, 12] was 1.385, the Basal ([5]; GABA curve fit, vehicle, n=9) was 0.99 and the EMax ([5]; GABA, vehicle, n=9) was 1.37. For the same compound, the Bottom [5, 13] was 0.9874, the HillSlope [5, 13] was 0.6587 and the Span [5, 13] was 0.3874. The Top [5, 13] was 1.375, the Bottom [5, 14] was 0.9919 and the HillSlope [5, 14] was 0.6543. It also gave a Span [5, 14] of 0.3771 and a Top [5, 14] of 1.369.
For Ac-DWGADTVSGDGYDAWDD-NH2 [sc-APP17], the “displacement of 1 μM APP17-TMR from GB1a/2 receptors (in words)” value [6] was “not sc-APP17 displaced 1 μM APP17-TMR from GB1a/2 receptors”, the “baclofen-induced K^+ currents in presence of peptide (in words)” value ([1]; 5 µM peptide + 5 µM baclofen) was “elicited currents of similar amplitudes as baclofen alone” and the “K^+ currents evoked by compound alone (in words)” value [1] was “did not elicit any currents”. For the same compound, the “GABA-induced Kir3 currents in presence of peptide (in words)” value ([7]; 5 µM GABA) was “nor did the peptides alter K^+ currents in the presence of 5 µM GABA”, the “Kir3 K^+ currents evoked by compound alone (in words)” value ([7]; transfected HEK293T cells) was “did not trigger K^+ currents” and the “spontaneous Ca^2+ transients (in words)” value [4] was “no significant effect compared to ACSF”. The “GABA-mediated PKA inactivation in presence of peptide (in words)” value ([8]; 10 μM peptide) was “GABA-mediated PKA inactivation was comparable”, the “effect of peptide alone on luminescence/receptor activity (in words)” value ([8]; 10 μM peptide) was “no agonistic, inverse agonistic, or antagonistic properties” and the “receptor activity with APP695 in cis (in words)” value ([8]; peptide, APP695 in cis) was “did not significantly alter GB1/2 receptor activity”. The “Fig. 2c value, 10mM GABA” value ([9]; 1 µM peptide with 10mM GABA, replicate 2) was 29.41, the “Fig. 2c value, 10mM GABA” value ([9]; 1 µM peptide with 10mM GABA, replicate 3) was 73.18 and the “Fig. 2c value, 10mM GABA” value ([9]; 1 µM peptide with 10mM GABA, replicate 4) was 69.99. For the same compound, the “Fig. 2c value, 10mM GABA” value ([9]; 1 µM peptide with 10mM GABA, replicate 5) was 51.73, the “Fig. 2c value, 10mM GABA” value ([9]; 1 µM peptide with 10mM GABA, replicate 6) was 86.53 and the “Fig. 2c value, Basal” value ([9]; 1 µM peptide, replicate 1) was 88.34. The “Fig. 2c value, Basal” value ([9]; 1 µM peptide, replicate 2) was 87.73, the “Fig. 2c value, Basal” value ([9]; 1 µM peptide, replicate 3) was 107.5 and the “Fig. 2c value, Basal” value ([9]; 1 µM peptide, replicate 4) was 102.7. The “Fig. 2c value, Basal” value ([9]; 1 µM peptide, replicate 5) was 121, the “Fig. 2c value, Basal” value ([9]; 1 µM peptide, replicate 6) was 65.57 and the “Fig. 2c value, 10mM GABA” value ([9]; 10 µM peptide with 10mM GABA, replicate 1) was 53.02. The “Fig. 2c value, 10mM GABA” value ([9]; 10 µM peptide with 10mM GABA, replicate 2) was 53.95, the “Fig. 2c value, 10mM GABA” value ([9]; 10 µM peptide with 10mM GABA, replicate 3) was 60.06 and the “Fig. 2c value, 10mM GABA” value ([9]; 10 µM peptide with 10mM GABA, replicate 4) was 60.44. The “Fig. 2c value, 10mM GABA” value ([9]; 10 µM peptide with 10mM GABA, replicate 6) was 23.67, the “Fig. 2c value, Basal” value ([9]; 10 µM peptide, replicate 1) was 90.75 and the “Fig. 2c value, Basal” value ([9]; 10 µM peptide, replicate 2) was 69.76. The “Fig. 2c value, Basal” value ([9]; 10 µM peptide, replicate 3) was 95.95, the “Fig. 2c value, Basal” value ([9]; 10 µM peptide, replicate 4) was 91.68 and the “Fig. 2c value, Basal” value ([9]; 10 µM peptide, replicate 5) was 104.2. For the same compound, the “Fig. 2c value, Basal” value ([9]; 10 µM peptide, replicate 6) was 90.96, the “FRET in the presence of 10 mM GABA (in words)” value ([9]; 1 or 10 μM peptide + 10 mM GABA) was “no significant differences in FRET” and the “FRET, basal, peptide alone (in words)” value ([9]; 1 or 10 μM peptide without GABA) was “no significant changes in FRET”. The “intracellular Ca^2+ mobilization (in words)” value [10] was “did not increase intracellular Ca^2+”.
For `C[C@H](NC[C@H](O)CP(=O)(O)Cc1ccccc1)c1ccc(Cl)c(Cl)c1` [CGP55845], the “mEPSC frequency (in words)” value [11] is listed as “reduced the inhibitory effect of APP17 on the mEPSC frequency”.
